For assay [1], the system named is OGA in HEK293 cells inducible for P301L mutant human Tau (isoform 2N4R). As to the kind of experiment: OGA cellular assay: immunocytochemical detection of O-GlcNAcylated proteins (CTD110.6 antibody). The class given is cell-based. As to conditions: Homo sapiens, HEK293, 6 h, 6 hours incubation; for Emax: maximum = Thiamet G 200 uM; for EC50: read-out: Cellular hOGA, pEC50 (converted). The procedure, abridged: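 Cells seeded 2 days ahead in low-glucose assay medium and exposed to compounds for 6 h at 0.2% DMSO, then PFA-fixed and immunostained. Signal is 488 nm intensity from imaging (9 fields/well), with Hoechst nuclei counts as a toxicity check. IC50 from non-linear regression, with 200 uM Thiamet G per plate as maximum inhibition.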

The target in assay [2] is T1, recombinant human Meningioma Expressed Antigen 5 (MGEA5), also referred to as O-GlcNAcase (OGA) (Homo sapiens, UniProt O60502).
T1 construct: Full length OGA enzyme was purchased at OnGene (cat #TP322411); purchased OnGene (so in the source)
T1 sequence (O60502 1-916): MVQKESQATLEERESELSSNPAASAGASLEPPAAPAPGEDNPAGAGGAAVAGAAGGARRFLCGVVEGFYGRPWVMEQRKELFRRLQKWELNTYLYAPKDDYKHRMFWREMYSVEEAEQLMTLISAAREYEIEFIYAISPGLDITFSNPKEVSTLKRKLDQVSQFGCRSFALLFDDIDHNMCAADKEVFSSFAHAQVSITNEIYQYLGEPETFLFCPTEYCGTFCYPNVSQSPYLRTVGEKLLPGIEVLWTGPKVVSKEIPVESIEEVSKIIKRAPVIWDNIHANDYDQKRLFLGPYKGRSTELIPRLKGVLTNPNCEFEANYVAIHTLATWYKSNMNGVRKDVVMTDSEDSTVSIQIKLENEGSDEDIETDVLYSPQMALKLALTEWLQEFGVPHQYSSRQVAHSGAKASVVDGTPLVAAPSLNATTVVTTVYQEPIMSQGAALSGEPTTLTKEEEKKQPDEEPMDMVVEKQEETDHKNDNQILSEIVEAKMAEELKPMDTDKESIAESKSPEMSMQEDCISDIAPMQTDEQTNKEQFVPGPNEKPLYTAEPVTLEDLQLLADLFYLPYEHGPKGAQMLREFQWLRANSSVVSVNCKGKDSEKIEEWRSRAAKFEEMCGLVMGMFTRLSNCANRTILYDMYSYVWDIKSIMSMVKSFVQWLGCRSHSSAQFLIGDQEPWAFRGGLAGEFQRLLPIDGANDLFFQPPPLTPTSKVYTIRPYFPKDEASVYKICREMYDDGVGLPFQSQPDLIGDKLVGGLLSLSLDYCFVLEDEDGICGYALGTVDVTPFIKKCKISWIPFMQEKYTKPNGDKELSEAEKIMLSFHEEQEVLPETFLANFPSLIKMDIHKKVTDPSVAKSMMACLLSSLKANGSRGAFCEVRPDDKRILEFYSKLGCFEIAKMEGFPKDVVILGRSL
The assay is described as follows: OGA biochemical assay: inhibition of hydrolysis of fluorescein mono-ß-D-N-Acetyl-Glucosamine (FM-GlcNAc), fluorescence readout. To be noted: FM-GlcNAc substrate; for Emax: read-out: Enzymatic Emax (%); for IC50: read-out: Enzymatic hOGA, pIC50 (converted). The essentials:
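Full-length recombinant human OGA (2 nM) was pre-incubated with compound for 60 min, then reacted with 100 uM FM-GlcNAc for 6 h at room temperature in 200 mM citrate/phosphate pH 7.2 with 0.005% Tween-20. Reactions were stopped with pH 11.0 carbonate and fluorescein read at 485/538 nm. IC50 and Hill coefficient came from curve fitting.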

Structures are written as SMILES.

Consider 13 compounds from US20210277003A1, “OGA INHIBITOR COMPOUNDS” (Janssen Pharmaceutica NV, priority 2018, published 2021).

The term Emax denotes the maximal effect, on the per cent scale that the assay sets.

As for `Cc1cc(OC(F)F)nc(C)c1Nc1nccc2c1ccn2CC(F)(F)C(C)C` [Compound 188], in assay [1], the Emax worked out at 89.1% and the EC50 was approximately 4.37 nM. In addition, in assay [2], the maximal response (Emax) is 100% and the IC50 was 1.62 nM.

With `Cc1cc2cnn(C)c2c(C)c1Nc1nccc2c1ccn2CC(F)(F)C(C)C` [Compound 189], in assay [1], the Emax was determined as 101% and the EC50 was 3.16 nM. Further, in assay [2], the Emax was found to be 100% and the IC50 is 1.05 nM.

Take `Cc1ncnc(C(C)C)c1Nc1nccc2c1ccn2CCC1CC1` [Compound 193]: in assay [1], the Emax stood at 89.7% and the EC50 is 112 nM. Also, in assay [2], the Emax was found to be 102% and the IC50 is 6.31 nM.

Turning to `Cc1cncc(C(F)(F)F)c1Nc1nccc2c1ccn2CCC1CC1` [Compound 194], in assay [1], the Emax came to 67.9% and the EC50 is 79.4 nM. Also, in assay [2], the Emax turned out to be 104% and the IC50 was 7.76 nM.

For `Cc1cccc(S(C)(=O)=O)c1Nc1nccc2c1ccn2CCC1CC1` [Compound 195], in assay [1], the Emax was found to be 95.3% and the EC50 is 25.1 nM. Besides, in assay [2], the Emax stood at 102% and the IC50 is 1.35 nM.

Consider `CC(C)C(F)(F)Cn1ccc2c(Nc3c(Cl)cccc3Cl)nccc21` [Compound 196], for which, in assay [1], the Emax was found to be 91.7% and the EC50 is 8.51 nM. Besides, in assay [2], the Emax was found to be 104% and the IC50 is 1.51 nM.

For `Cc1ccnc(C(F)(F)F)c1Nc1nccc2c1ccn2CCC1CC1` [Compound 197], in assay [1], the Emax was determined as 86.3% and the EC50 is 56.2 nM. In assay [2], the Emax turned out to be 104% and the IC50 is 4.9 nM.

As for `FC(F)(F)CCn1ccc2c(Nc3c(Cl)cccc3Cl)nccc21` [Compound 200], in assay [1], the Emax was found to be 70.1% and the EC50 is 513 nM. In assay [2], the Emax came to 103% and the IC50 was 23.4 nM.

For the compound `Cc1ccnc(C)c1Nc1nccc2c1ccn2CC(F)(F)C(C)C` [Compound 202], in assay [1], the Emax amounted to 88.1% and the EC50 is 3.63 nM. In addition, in assay [2], the Emax came to 101% and the IC50 is 3.09 nM.

With `Cc1ccnc(C)c1Nc1nccc2c1ccn2CC1(F)CC1` [Compound 204], in assay [1], the maximal response (Emax) stood at 76.1% and the EC50 is 269 nM. Besides, in assay [2], the Emax was found to be 101% and the IC50 is 57.5 nM.

Take `Cc1ccnc(C(C)(C)F)c1Nc1nccc2c1ccn2CC(C)(F)F` [Compound 205]: in assay [1], the Emax amounted to 88.6% and the EC50 is 9.55 nM. Moreover, in assay [2], the Emax turned out to be 98.2% and the IC50 is 3.02 nM.

For the compound `CCCCn1ccc2c(Nc3c(C)ccc4c3nc(C)n4C)nccc21` [Compound 206], in assay [1], the Emax worked out at 63.7% and the EC50 was 661 nM. Further, in assay [2], the Emax was determined as 101% and the IC50 is 51.3 nM.

As to `CC(C)=C(F)Cn1ccc2c(Nc3c(C)cc(-c4cnn(C)c4)cc3C)nccc21` [Compound 208], in assay [1], the Emax was 90.1% and the EC50 is 72.4 nM. Besides, in assay [2], the Emax came to 101% and the IC50 was 10.2 nM.
